Measured values as given in patent publication US9040707B2, “Bicyclic thiazoles as allosteric modulators of mGluR5 receptors” (Janssen Pharmaceutica NV, priority 2009, dated 2015).

Key:
human mGluR5a receptor = biological target: T1, human mGluR5a receptor (Homo sapiens, UniProt P41594); test: Functional Assay 2: Ca2+ mobilization, HEK cells with human mGluR5a receptor (H10H cell line); assay type: cell-based; conditions: H10H cell line; for EC50: glutamate EC20; for Emax: HEK293, maximum average response at a single concentration, relative to glutamate ECMax
T1 construct: host or cells: HEK293A (monoclones H10H and H12H)
T1 sequence (P41594 21-1180 isoform P41594-2 limits assumed): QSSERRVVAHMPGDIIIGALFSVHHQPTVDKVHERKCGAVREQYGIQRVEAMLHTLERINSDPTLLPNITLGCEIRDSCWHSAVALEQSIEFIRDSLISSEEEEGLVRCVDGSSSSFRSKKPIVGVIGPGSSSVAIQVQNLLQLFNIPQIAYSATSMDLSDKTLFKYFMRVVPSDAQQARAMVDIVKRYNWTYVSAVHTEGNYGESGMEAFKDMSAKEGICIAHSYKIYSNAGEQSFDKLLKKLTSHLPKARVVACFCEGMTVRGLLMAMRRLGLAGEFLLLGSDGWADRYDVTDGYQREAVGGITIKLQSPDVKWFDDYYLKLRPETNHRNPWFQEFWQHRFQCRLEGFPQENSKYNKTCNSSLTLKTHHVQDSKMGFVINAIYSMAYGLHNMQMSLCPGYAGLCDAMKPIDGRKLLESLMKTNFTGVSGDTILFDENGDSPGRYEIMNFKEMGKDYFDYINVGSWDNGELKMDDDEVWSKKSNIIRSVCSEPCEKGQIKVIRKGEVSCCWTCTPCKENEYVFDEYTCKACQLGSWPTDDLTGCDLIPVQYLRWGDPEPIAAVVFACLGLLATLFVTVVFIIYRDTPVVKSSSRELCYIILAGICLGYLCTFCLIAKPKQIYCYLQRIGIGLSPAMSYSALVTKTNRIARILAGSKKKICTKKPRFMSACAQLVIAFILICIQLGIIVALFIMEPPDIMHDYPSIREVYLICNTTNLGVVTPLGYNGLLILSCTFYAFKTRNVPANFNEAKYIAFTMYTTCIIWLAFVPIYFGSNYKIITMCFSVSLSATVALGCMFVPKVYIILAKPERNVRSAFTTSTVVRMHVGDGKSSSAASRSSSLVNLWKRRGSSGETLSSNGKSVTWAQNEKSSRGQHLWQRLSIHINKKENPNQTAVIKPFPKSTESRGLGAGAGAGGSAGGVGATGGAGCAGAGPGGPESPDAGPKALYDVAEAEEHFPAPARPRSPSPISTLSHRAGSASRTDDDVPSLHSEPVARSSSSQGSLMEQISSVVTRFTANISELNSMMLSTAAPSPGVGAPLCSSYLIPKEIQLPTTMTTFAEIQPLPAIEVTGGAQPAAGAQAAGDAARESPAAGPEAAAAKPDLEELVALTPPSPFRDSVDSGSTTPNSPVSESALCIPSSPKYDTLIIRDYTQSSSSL
Experimental: Human mGluR5a cDNA in pCMV6-XL6 mammalian expression plasmid was purchased from OriGene Technologies, Inc. (catalogue number SC326357) and subcloned into pcDNA3.1(−). […] Monoclones were named for the species (“H” for human) plus the location on the plate (e.g. “10H”).
The following day, the growth medium was removed and the cells were washed with assay buffer containing 1× Hank's balanced salt solution (Invitrogen, Carlsbad, Calif.), 20 mM HEPES, 2.5 mM probenecid, pH 7.4 and left with 20 μL of this reagent. Following this step, the cells were loaded with calcium indicator dye, fluo-4 AM, to a final concentration of 2 μM and incubated for 40-45 min at 37° C. The dye solution was removed and replaced with assay buffer. Cell plates were held for 10-15 min at room temperature and were then loaded into the Functional Drug Screening System 6000 (FDSS 6000, Hamamatsu, Japan).
After establishment of a fluorescence baseline for about 3 seconds, the compounds of the present invention were added to the cells, and the response in cells was measured. 2.3 minutes later an EC20 concentration of the mGluR5 receptor agonist glutamate was added to the cells, and the response of the cells was measured for about 1.7 minutes. All test compounds were dissolved and diluted to a concentration of 10 mM in 100% DMSO and then serially diluted into assay buffer for a 2× stock solution in 0.6% DMSO; stock compounds were then added to the assay for a final DMSO concentration of 0.3% after the first addition to the assay well. Calcium fluorescence measures were recorded as fold over basal fluorescence; raw data was then normalized to the maximal response to glutamate.
The concentration-response curves of compounds of the present invention, obtained in the presence of EC20 of mGluR5 receptor agonist glutamate to determine positive allosteric modulation, were generated using Microsoft Excel with IDBS XLfit add-ins. The raw data file containing all time points was used as the data source in the analysis template. This was saved by the FDSS as a tab-delimitted text file. Data were normalized using a static ratio function (F/F0) for each measurement of the total 350 values per well divided by each well's initial value. […] This is sufficient time to capture the peak amplitude of the cellular calcium response. […] Each of the three values collected at each concentration of test compound were weighted evenly. […] These two methods are in good agreement for curves with a clear plateau at the high concentration range.

human mGluR5 receptor = biological target: T2, human mGluR5 receptor (Homo sapiens, UniProt P41594); test: Functional Assay 1: intracellular Ca2+ mobilization, positive allosteric modulation of glutamate EC20 response; assay type: cell-based; conditions: for EC50: human mGluR5 over-expressing HEK-293 cells, glutamate EC20 (~0.2 μM), updated value; for Emax: maximum % effect relative to glutamate ECMax
T2 construct: expressed in transfected cells; host or cells: HEK-293
T2 sequence (P41594 21-1180 isoform P41594-2 limits assumed): as above
Experimental: HEK-293 cells were stable transfected with human mGluR5a cDNA in expression vector pcDNA4/TO. For Assay 1, these human mGluR5 receptor over-expressing HEK-293 cells were grown at a density of 40,000 cells/well in PDL-coated 384-well plates. The following day, cells were preloaded with the calcium-sensing dye Fluo-4 AM and various concentrations of test compound were added in the absence of exogenous glutamate to test for direct agonist activity. Shortly (2.5 min) thereafter, an EC20 equivalent of glutamate (˜0.2 μM) was added. The fluorescence signal was monitored using a Hamamatsu Functional Drug Screening System (FDSS) fluorescence plate reader following the addition of compound alone (direct agonist response) and then the further addition of an EC20 of glutamate (positive allosteric modulation response). The pEC50 was defined as the negative log of the test compound concentration which produced an increase in the glutamate EC20-mediated response that was 50% of maximum. Individual amplitudes were expressed as % effect by multiplying each amplitude by 100 and then dividing the product by the mean of the amplitudes derived from the glutamate ECMax-treated wells. Emax values reported in this application are defined as the maximum % effect obtained in a concentration-response curve.

Row | Compound | EC50 (human mGluR5a receptor) | Emax (human mGluR5a receptor) | melting point | EC50 (human mGluR5 receptor) | Emax (human mGluR5 receptor)
1 | N#Cc1cccc(COc2nc3c(s2)C(=O)N(c2ccc(F)cc2F)CC3)c1 [Compound 20, 3-[[[5-(2,4-difluorophenyl)-4,5,6,7-tetrahydro-4-oxothiazolo[5,4-c]pyridin-2-yl]oxy]methyl]-benzonitrile] | 158 nM | 25% | 112.9 °C |  | 
2 | Cc1cccc(COc2nc3c(s2)C(=O)N(c2ccc(F)cc2F)CC3)c1 [Compound 21, 5-(2,4-difluorophenyl)-6,7-dihydro-2-[(3-methylphenyl)methoxy]-thiazolo[5,4-c]pyridin-4(5H)-one] | 331 nM | 54% | 95.2 to 97.2 °C |  | 
3 | O=C1c2sc(OCc3ccccc3F)nc2CCN1c1ccc(F)cc1 [Compound 22, 5-(4-fluorophenyl)-2-[(2-fluorophenyl)methoxy]-6,7-dihydro-thiazolo[5,4-c]pyridin-4(5H)-one] | 372 nM | 45% | 91 to 92.5 °C |  | 
4 | O=C1c2sc(OCc3ccc(F)cc3F)nc2CCN1c1ccc(F)cc1F [Compound 23, 5-(2,4-difluorophenyl)-2-[(2,4-difluorophenyl)methoxy]-6,7-dihydro-thiazolo[5,4-c]pyridin-4(5H)-one] |  |  | 104.3 to 107.2 °C | 955 nM | 54%
5 | O=C1c2sc(COc3cccc(F)c3)nc2CCN1c1ccc(F)cc1 [Compound 25, 2-[(3-fluorophenoxy)methyl]-5-(4-fluorophenyl)-6,7-dihydro-thiazolo[5,4-c]pyridin-4(5H)-one] | 174 nM | 63% | 152.8 °C |  | 
6 | O=C1c2sc(OCc3cccc(F)c3)nc2CCN1c1ccc(C(F)(F)F)cc1 [Compound 26, 2-[(3-fluorophenyl)methoxy]-6,7-dihydro-5-[4-(trifluoromethyl)phenyl]-thiazolo[5,4-c]pyridin-4(5H)-one] |  |  | 130 to 131.5 °C | 214 nM | 46%
7 | O=C1c2sc(COc3ccccc3)nc2CCN1c1ccc(F)cc1F [Compound 29, 5-(2,4-difluorophenyl)-6,7-dihydro-2-(phenoxymethyl)-thiazolo[5,4-c]pyridin-4(5H)-one] | 97.7 nM | 81% | 268.9 to 284.1 °C |  | 
8 | O=C1c2sc(COc3ccccc3F)nc2CCN1c1ccc(F)cc1 [Compound 31, 2-[(2-fluorophenoxy)methyl]-5-(4-fluorophenyl)-6,7-dihydro-thiazolo[5,4-c]pyridin-4(5H)-one] | 282 nM | 71% | > 280 °C |  | 
9 | O=C1c2sc(COc3ccc(F)cc3)nc2CCN1c1ccc(F)cc1F [Compound 32, 5-(2,4-difluorophenyl)-2-[(4-fluorophenoxy)methyl]-6,7-dihydro-thiazolo[5,4-c]pyridin-4(5H)-one] | 224 nM | 81% | > 280 °C |  | 
10 | C[C@@H](N1CCc2nc(COc3ccccc3F)sc2C1=O)C(C)(C)C [Compound 33, 2-[(2-fluorophenoxy)methyl]-6,7-dihydro-5-[(1R)-1,2,2-trimethylpropyl]-thiazolo[5,4-c]pyridin-4(5H)-one] | > 30200 nM | 38% | 98.4 to 99.6 °C |  | 
11 | COc1ccccc1N1CCc2nc(COc3cccc(F)c3)sc2C1=O [Compound 37, 2-[(3-fluorophenoxy)methyl]-6,7-dihydro-5-(2-methoxyphenyl)-thiazolo[5,4-c]pyridin-4(5H)-one] | 871 nM | 83% | 61.2 to 64.2 °C |  | 
12 | CN1CCCc2nc(COc3ccccc3)sc2C1=O [Compound 38, 5,6,7,8-tetrahydro-5-methyl-2-(phenoxymethyl)-4H-thiazolo[5,4-c]azepin-4-one] | 1070 nM | 70% | 105.9 °C |  | 
13 | O=C1c2sc(COc3ccccc3)nc2CCN1CC1CC1 [Compound 39, 5-(cyclopropylmethyl)-6,7-dihydro-2-(phenoxymethyl)-thiazolo[5,4-c]pyridin-4(5H)-one] | 209 nM |  | 292.6 to 302.9 °C |  | 
14 | O=C1c2sc(COc3cccc(F)c3)nc2CCN1C1CC1 [Compound 40, 5-cyclopropyl-2-[(3-fluorophenoxy)methyl]-6,7-dihydro-thiazolo[5,4-c]pyridin-4(5H)-one] | 1550 nM | 39% | 243.9 to 245.7 °C |  | 
15 | O=C1c2sc(COc3cccc(F)c3)nc2CCN1CC1CC1 [Compound 41, 5-(cyclopropylmethyl)-2-[(3-fluorophenoxy)methyl]-6,7-dihydro-thiazolo[5,4-c]pyridin-4(5H)-one] | 224 nM | 66% | 275.4 to 277.8 °C |  | 
16 | O=C1c2sc(COc3ccccc3F)nc2CCN1CC1CC1 [Compound 42, 5-(cyclopropylmethyl)-2-[(2-fluorophenoxy)methyl]-6,7-dihydro-thiazolo[5,4-c]pyridin-4(5H)-one] | 1100 nM | 67% | 85.3 to 87.1 °C |  | 
17 | O=C1c2sc(COc3ccc(F)cc3)nc2CCN1CC1CC1 [Compound 43, 5-(cyclopropylmethyl)-2-[(4-fluorophenoxy)methyl]-6,7-dihydro-thiazolo[5,4-c]pyridin-4(5H)-one] | 759 nM | 59% | 254 to 259.1 °C |  | 
18 | O=C1c2sc(COc3ccccc3)nc2CCN1C1CC1 [Compound 44, 5-cyclopropyl-6,7-dihydro-2-(phenoxymethyl)-thiazolo[5,4-c]pyridin-4(5H)-one] | 4370 nM | 36% | 252.1 to 255.3 °C |  | 
19 | Cc1cccc(N2CCc3nc(COc4ccccc4)sc3C2=O)n1 [Compound 46, 6,7-dihydro-5-(6-methyl-2-pyridinyl)-2-(phenoxymethyl)-thiazolo[5,4-c]pyridin-4(5H)-one] | 550 nM | 84% | 155.5 °C |  | 
20 | O=C1c2sc(COc3ccc(F)cc3)nc2CCN1c1ccc(F)cn1 [Compound 53, 2-[(4-fluorophenoxy)methyl]-5-(5-fluoro-2-pyridinyl)-6,7-dihydro-thiazolo[5,4-c]pyridin-4(5H)-one] | 295 nM | 56% | 185.8 to 186.8 °C |  | 
21 | O=C1c2sc(COc3cccc(F)c3)nc2CCN1c1ccc(F)cn1 [Compound 54, 2-[(3-fluorophenoxy)methyl]-5-(5-fluoro-2-pyridinyl)-6,7-dihydro-thiazolo[5,4-c]pyridin-4(5H)-one] | 288 nM | 79% | 125.8 to 126.4 °C |  | 
22 | O=C1c2sc(COc3ccccc3F)nc2CCN1c1ccc(F)cn1 [Compound 55, 2-[(2-fluorophenoxy)methyl]-5-(5-fluoro-2-pyridinyl)-6,7-dihydro-thiazolo[5,4-c]pyridin-4(5H)-one] | 550 nM | 63% | 151.8 to 153 °C |  | 
23 | O=C1c2sc(COc3ccccc3)nc2CCN1c1cncc(F)c1 [Compound 57, 5-(5-fluoro-3-pyridinyl)-6,7-dihydro-2-(phenoxymethyl)-thiazolo[5,4-c]pyridin-4(5H)-one] | 1700 nM | 62% | 167.6 °C |  | 
24 | O=C1c2sc(COc3ccccc3F)nc2CCN1c1ccc(F)cc1F [Compound 59, 5-(2,4-difluorophenyl)-2-[(2-fluorophenoxy)methyl]-6,7-dihydro-thiazolo[5,4-c]pyridin-4(5H)-one] | 195 nM | 76% | 100.1 to 105.2 °C |  | 
25 | O=C1c2sc(COc3ccccc3F)nc2CCN1C1CC1 [Compound 61, 5-cyclopropyl-2-[(2-fluorophenoxy)methyl]-6,7-dihydro-thiazolo[5,4-c]pyridin-4(5H)-one] | > 30200 nM | 27% | 235.8 to 240.2 °C |  | 
26 | O=C1c2sc(COc3ccc(F)cc3)nc2CCN1C1CC1 [Compound 62, 5-cyclopropyl-2-[(4-fluorophenoxy)methyl]-6,7-dihydro-thiazolo[5,4-c]pyridin-4(5H)-one] | > 10000 nM | 51% | 126.3 to 130.8 °C |  | 
27 | O=C1c2sc(OCc3cc(F)cc(F)c3)nc2CCN1c1ccc(F)cc1F [Compound 73, 5-(2,4-difluorophenyl)-2-[(3,5-difluorophenyl)methoxy]-6,7-dihydro-thiazolo[5,4-c]pyridin-4(5H)-one] | > 30200 nM | 16% | 127 to 130.5 °C |  | 
